By IC50 is commonly meant the concentration that inhibits the measured activity by half. Low readings indicate inhibition by little substance, high ones a need for much substance. What is called EC50 is the concentration at which the effect is half-maximal.

For series [1], the target named is T1, DNA-PK phosphorylation at Serine 2056 (Homo sapiens, UniProt P78527).
T1 construct: FaDu cells were purchased from ATCC; host or cells: FaDu
Nature of the series: Cellular Assay for Inhibition of DNA-PK Phosphorylation at Serine 2056 in FaDu cells (sandwich ELISA, neocarzinostatin). Format: cell-based. As to conditions: pSer2056 DNA-PK, Table 3. A digest of the protocol: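 pSer2056 and total DNA-PK were measured by sandwich ELISA in BCA-normalised FaDu lysates. Cells had 1 h compound exposure (0.3% DMSO), then 2 h with 1 μg/mL final neocarzinostatin. IC50 was fitted (variable slope) to % inhibition scaled against NCS-stimulated and DMSO-only controls.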
A general note: In an ELISA, binding on a coated surface is turned into a signal by an enzyme label.

The test system of another series is FaDu cell line. The series is described as follows: Prodrug Activation in Hypoxic Stirred Tumour Cell Suspensions. As to conditions: 10 μM, 4 hours.
The subject of series [2] is pH2AX induction in HCT116 ATM-/- multicellular tumour spheroids. The series is described as follows: Prodrug Radiation Sensitization in Multicellular Tumour Spheroids, inhibition of pH2AX induction following radiation. Type of series: cell-based. As to conditions: Homo sapiens, HCT-116, 20 Gy. As for the experimental part:
Prodrug compounds were assayed to determine their potency in 3D multicellular spheroids in media maintained under 20% vs 5% oxygen. Multicellular tumour spheroids were grown to approximately 0.5 mm in diameter and irradiated with 20 Gy in combination with inhibitor test compounds to determine their potency using HCT 116 and FaDu cell lines. Experiments were carried out in 96 well plates containing 0.7 mls of MEM media containing 10% FBS and 10 mM glucose under 5% CO2 at 37° C. Following dilution of compounds 1:1000 from DMSO stocks, compounds were serially diluted from 10 μM down to 3.5 nM and 5-10 spheroids added. 96 well plates were constantly stirred to avoid spheroids settling during the course of the experiment. Endpoints were pDNA-PK (ser 2056) or pH2AX (ser 139) status in spheroid cryosections taken 1 or 2 hours following radiation and fixed immediately in formalin. Using tumour cell lines deficient in ATM improved the assay signal to noise and gH2AX readout. Using this assay prodrug activity could be compared in the more oxygenated outer spheroid layers versus less oxygenated hypoxic central cell layers.

[3] abbreviates: 5% O2, inner layers, read-out: Prodrug 5% O2 Inner layers EC50.
Setting [4] is: 5% O2, outer layers, read-out: Prodrug 5% O2 Outer layers EC50.
[5] abbreviates: 20% O2, outer layers, read-out: Prodrug 20% O2 Outer layers EC50.

Where two headings read alike, the source gives them in different places.

Method for FaDu cell line: Prodrug compounds were assayed to determine their stability and rate of activation in stirred cell suspensions under 0.2 vs 5% oxygen. Compounds were diluted 1:1000 from DMSO stocks to 10 μM final concentration in tumour cell suspensions (1% by cell volume) in MEM media containing 10% FBS, 10 mM glucose & 3.7 g/L sodium bicarbonate. Cell lines assayed included A253, A549, Detroit562, FaDu, HCT116, HEP G2, HT29, SCC25, SCC9, SiHa & TC32. Compounds and cells were then incubated for 4 hours under constant mixing at 37° C. under 5% CO2 and either 0.2 or 5% O2. Following the incubation period cellular activation of the compounds was assayed via MeOH extraction and HPLC quantification.

`CC(Oc1cnc2cc(N3CCOCC3)nc(O[C@H]3CC[C@@H](Nc4ncc(OCCN5CCOCC5)cn4)CC3)c2c1)c1cnc([N+](=O)[O-])n1C` (stereo partly drawn) [LFA2049, N-[4-[[3-[1-(3-methyl-2-nitro-imidazol-4-yl)ethoxy]-7-morpholino-1,6-naphthyridin-5-yl]oxy]cyclohexyl]-5-(2-morpholinoethoxy)pyrimidin-2-amine] displayed an IC50 in series [1] of 0.1 to 1 µM. In addition, the “Fraction of prodrug converted to active form, Hypoxic 0.2% O2” value (shortened to “Fraction … Hypoxic 0.2% O2”) in the series on FaDu cell line is reported as “A (A is 0.15 to 1)”. Further, the “Fraction of prodrug converted to active form, Oxic 5% O2” value (from here on “Fraction … Oxic 5% O2”) in the series with FaDu cell line is reported as “B (B is 0.05 to 0.15)”. Further, the EC50 in series [2] (setting [3]) lay within 0.01 to 0.5 µM; in series [2] (setting [4]) it was 0.5 to 1 µM; in series [2] (setting [5]) it was 1 to 10 µM.
`CC(c1cnn(C)c1[N+](=O)[O-])N(c1cnc2cc(N3CCOCC3)nc(OC3CCC(Nc4ccn5nccc5n4)CC3)c2c1)S(C)(=O)=O` (stereo not drawn) [LFA2050, N-[1-(1-methyl-5-nitro-pyrazol-4-yl)ethyl]-N-[7-morpholino-5-[4-(pyrazolo[1,5-a]pyrimidin-5-ylamino)cyclohexoxy]-1,6-naphthyridin-3-yl]methanesulfonamide]: the IC50 in series [1] lay within 1 to 10 µM. In the series with FaDu cell line, the “Fraction … Hypoxic 0.2% O2” value is recorded as “B (B is 0.05 to 0.15)”. In addition, in the series on FaDu cell line, the “Fraction … Oxic 5% O2” value is “B (B is 0.05 to 0.15)”. In addition, the EC50 in series [2] (setting [3]) lay within 0.01 to 0.5 µM; in series [2] (setting [4]), 1 to 10 µM; in series [2] (setting [5]), 1 to 10 µM.
Molecule `CC(c1cnc([N+](=O)[O-])n1C1CC1)N(c1cnc2cc(N3CCOCC3)nc(OC3CCC(Nc4ccn5nccc5n4)CC3)c2c1)S(C)(=O)=O` (stereo not drawn) [LFA2051, N-[1-(3-cyclopropyl-2-nitro-imidazol-4-yl)ethyl]-N-[7-morpholino-5-[4-(pyrazolo[1,5-a]pyrimidin-5-ylamino)cyclohexoxy]-1,6-naphthyridin-3-yl]methanesulfonamide] had an IC50 in series [1] of 10 to 30 µM. The “Fraction … Hypoxic 0.2% O2” value in the series on FaDu cell line is given as “A (A is 0.15 to 1)”. In addition, the “Fraction … Oxic 5% O2” value in the series on FaDu cell line is listed as “D (D is 0 to 0.02)”. The EC50 in series [2] (setting [3]) was 0.01 to 0.5 µM; in series [2] (setting [4]), 1 to 10 µM; in series [2] (setting [5]) it was 1 to 10 µM.
For `CC(c1cnn(C)c1[N+](=O)[O-])N(c1cnc2cc(N3CCOCC3)nc(O[C@H]3CC[C@@H](Nc4ncc(C#N)cn4)CC3)c2c1)S(C)(=O)=O` (stereo partly drawn) [LFA2052, N-[5-[4-[(5-cyanopyrimidin-2-yl)amino]cyclohexoxy]-7-morpholino-1,6-naphthyridin-3-yl]-N-[1-(1-methyl-5-nitro-pyrazol-4-yl)ethyl]methanesulfonamide], the IC50 in series [1] is 1 to 10 µM. For the same molecule, the “Fraction … Hypoxic 0.2% O2” value in the series on FaDu cell line was “B (B is 0.05 to 0.15)”. In the series with FaDu cell line, the “Fraction … Oxic 5% O2” value was “C (C is 0.02 to 0.05)”. In addition, the EC50 was 0.01 to 0.5 µM in series [2] (setting [3]), 0.5 to 1 µM in series [2] (setting [4]) and 1 to 10 µM in series [2] (setting [5]).
`CC(c1cnc([N+](=O)[O-])n1C)N(c1cnc2cc(N3CCOCC3)nc(O[C@H]3CC[C@@H](Nc4ncc(CN5CCOCC5)cn4)CC3)c2c1)S(C)(=O)=O` (stereo partly drawn) [LFA2053, N-[1-(3-methyl-2-nitro-imidazol-4-yl)ethyl]-N-[7-morpholino-5-[4-[[5-(morpholinomethyl)pyrimidin-2-yl]amino]cyclohexoxy]-1,6-naphthyridin-3-yl]methanesulfonamide] gave an IC50 in series [1] of 10 to 30 µM. The “Fraction … Hypoxic 0.2% O2” value with FaDu cell line is given as “B (B is 0.05 to 0.15)”. Further, the “Fraction … Oxic 5% O2” value in the series with FaDu cell line is given as “D (D is 0 to 0.02)”. In addition, the concentration for a half-maximal effect (EC50) lay within 0.01 to 0.5 µM in series [2] (setting [3]), 0.5 to 1 µM in series [2] (setting [4]) and 1 to 10 µM in series [2] (setting [5]).
Consider `CC(c1cnc([N+](=O)[O-])n1C)N(c1cnc2cc(N3CCOCC3)nc(O[C@H]3CC[C@@H](Nc4ncc(OCCN5CCOCC5)cn4)CC3)c2c1)S(C)(=O)=O` (stereo partly drawn) [LFA2054, N-[1-(3-methyl-2-nitro-imidazol-4-yl)ethyl]-N-[7-morpholino-5-[4-[[5-(2-morpholinoethoxy)pyrimidin-2-yl]amino]cyclohexoxy]-1,6-naphthyridin-3-yl]methanesulfonamide], for which, in series [1], the IC50 is 10 to 30 µM. For the same molecule, in the series on FaDu cell line, the “Fraction … Hypoxic 0.2% O2” value was “B (B is 0.05 to 0.15)”. For the same molecule, the “Fraction … Oxic 5% O2” value with FaDu cell line was “D (D is 0 to 0.02)”. For the same molecule, the EC50 was in the range of 0.01 to 0.5 µM in series [2] (setting [3]), 0.5 to 1 µM in series [2] (setting [4]) and 10 to 100 µM in series [2] (setting [5]).
For the molecule `CC(c1cnc([N+](=O)[O-])n1C1CC1)N(c1cnc2cc(N3CCOCC3)nc(O[C@H]3CC[C@@H](Nc4ncccn4)CC3)c2c1)S(C)(=O)=O` (stereo partly drawn) [LFA2055, N-[1-(3-cyclopropyl-2-nitro-imidazol-4-yl)ethyl]-N-[7-morpholino-5-[4-(pyrimidin-2-ylamino)cyclohexoxy]-1,6-naphthyridin-3-yl]methanesulfonamide], the IC50 in series [1] was in the range of 1 to 10 µM. Also, in the series on FaDu cell line, the “Fraction … Hypoxic 0.2% O2” value was “A (A is 0.15 to 1)”. In addition, in the series on FaDu cell line, the “Fraction … Oxic 5% O2” value is recorded as “D (D is 0 to 0.02)”. The EC50 is 0.01 to 0.5 µM in series [2] (setting [3]), 0.01 to 0.5 µM in series [2] (setting [4]) and 1 to 10 µM in series [2] (setting [5]).
Turning to `CC(c1cnn(C)c1[N+](=O)[O-])N(c1cnc2cc(N3CCOCC3)nc(O[C@H]3CC[C@@H](Nc4ncccn4)CC3)c2c1)S(C)(=O)=O` (stereo partly drawn) [LFA2056, N-[1-(1-methyl-5-nitro-pyrazol-4-yl)ethyl]-N-[7-morpholino-5-[4-(pyrimidin-2-ylamino)cyclohexoxy]-1,6-naphthyridin-3-yl]methanesulfonamide], in series [1], the IC50 is 1 to 10 µM. Moreover, the “Fraction … Hypoxic 0.2% O2” value with FaDu cell line is given as “C (C is 0.02 to 0.05)”. Moreover, the “Fraction … Oxic 5% O2” value in the series on FaDu cell line is recorded as “C (C is 0.02 to 0.05)”. For the same molecule, the EC50 lay in the range of 0.01 to 0.5 µM in series [2] (setting [3]), 0.01 to 0.5 µM in series [2] (setting [4]) and 1 to 10 µM in series [2] (setting [5]).
Regarding `Cn1ncc(CN(c2cnc3cc(N4CCOCC4)nc(O[C@H]4CC[C@@H](Nc5ncccn5)CC4)c3c2)S(C)(=O)=O)c1[N+](=O)[O-]` [LFA2057, N-[(1-methyl-5-nitro-pyrazol-4-yl)methyl]-N-[7-morpholino-5-[4-(pyrimidin-2-ylamino)cyclohexoxy]-1,6-naphthyridin-3-yl]methanesulfonamide], the IC50 in series [1] fell in the range of 1 to 10 µM. Besides, the “Fraction … Hypoxic 0.2% O2” value in the series with FaDu cell line is reported as “A (A is 0.15 to 1)”. Also, the “Fraction … Oxic 5% O2” value in the series on FaDu cell line is given as “B (B is 0.05 to 0.15)”. For the same molecule, the EC50 in series [2] (setting [3]) was 0.01 to 0.5 µM; in series [2] (setting [4]), 0.01 to 0.5 µM; in series [2] (setting [5]), 1 to 10 µM.
In series [1], `CS(=O)(=O)N(Cc1cnc([N+](=O)[O-])n1C1CC1)c1cnc2cc(N3CCOCC3)nc(O[C@H]3CC[C@@H](Nc4ncccn4)CC3)c2c1` [LFA2058, N-[(3-cyclopropyl-2-nitro-imidazol-4-yl)methyl]-N-[7-morpholino-5-[4-(pyrimidin-2-ylamino)cyclohexoxy]-1,6-naphthyridin-3-yl]methanesulfonamide] registered an IC50 of 1 to 10 µM. Also, the “Fraction … Hypoxic 0.2% O2” value in the series with FaDu cell line is recorded as “B (B is 0.05 to 0.15)”. The “Fraction … Oxic 5% O2” value in the series on FaDu cell line is recorded as “C (C is 0.02 to 0.05)”. Besides, the values for the EC50 in series [2] (setting [3]), in series [2] (setting [4]) and in series [2] (setting [5]) were 0.01 to 0.5 µM, 0.01 to 0.5 µM and 1 to 10 µM, respectively.
